The experiment concerns the target T1, ERα (Homo sapiens, UniProt P03372).
T1 construct: measured to determine the levels of ERα and DNA respectively; host or cells: MCF7
T1 sequence (P03372 1-595): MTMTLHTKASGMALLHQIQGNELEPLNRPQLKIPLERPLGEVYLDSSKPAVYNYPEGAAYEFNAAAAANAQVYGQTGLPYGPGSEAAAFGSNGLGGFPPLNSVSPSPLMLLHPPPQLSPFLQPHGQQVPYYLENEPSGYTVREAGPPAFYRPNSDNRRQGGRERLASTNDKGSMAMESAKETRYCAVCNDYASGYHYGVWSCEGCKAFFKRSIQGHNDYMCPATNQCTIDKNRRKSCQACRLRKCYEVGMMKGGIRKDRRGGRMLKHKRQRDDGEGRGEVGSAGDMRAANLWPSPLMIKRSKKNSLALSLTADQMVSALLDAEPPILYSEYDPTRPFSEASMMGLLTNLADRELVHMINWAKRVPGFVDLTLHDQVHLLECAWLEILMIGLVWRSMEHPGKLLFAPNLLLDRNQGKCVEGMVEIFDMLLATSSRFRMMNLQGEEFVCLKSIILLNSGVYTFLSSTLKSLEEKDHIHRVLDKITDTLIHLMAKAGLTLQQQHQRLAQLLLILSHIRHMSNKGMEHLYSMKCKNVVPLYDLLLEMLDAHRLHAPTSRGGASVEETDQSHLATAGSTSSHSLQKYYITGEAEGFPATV
As to the kind of experiment: Estrogen receptor degradation activity: breast cancer cell ERα in cell western assay. Type of experiment: cell-based. As to conditions: MCF7 cells; for % Degradation At 0.3 μM: 4 hours, relative to fulvestrant 0.1 μM positive control; for DC50: 4 hours post compound addition, concentration which degrades 50% of the estrogen receptor, read-out: Degradation IC50. The method, then: Test: Estrogen Receptor Degradation Activity
Said test involves measuring the in vitro degradation activity of the compounds of the Table 1.
The measurements of the degradation activities were made using a breast cancer cell ERα in cell western assay as described hereunder.
MCF7 cells (ATCC) were seeded in 384 wells microplate (collagen coated) at a concentration of 10000 cells/30 μL per well in red phenol free MEM alpha medium (invitrogen) containing 5% charcoal dextran striped FBS. The following day, 9 points serial 1:5 dilution of each compound was added to the cells in 2.5 μL at final concentrations ranging from 0.3-0.0000018 μM (in Table 2), or 0.1 μM for fulvestrant (using as positive control). At 4 hours post compound addition the cells were fixed by adding 25 μL of formalin (final concentration 5% formalin containing 0.1% triton) for 10 minutes at room temperature and then washed twice with PBS. Then, 50 μL of LI-COR blocking buffer containing 0.1% Triton was added to plate for 30 minutes at room temperature. LI-COR blocking buffer was removed and cells were incubated overnight at cold room with 50 μL anti-ER rabbit monoclonal antibody (Thermo scientific MA1-39540) diluted at 1:1000 in LI-COR blocking buffer containing 0.1% tween-20. Wells which were treated with blocking buffer but no antibody were used as background control. Wells were washed twice with PBS (0.1% tween-20) and incubated at 37° C. for 60 minutes in LI-COR (0.1% tween-20) containing goat anti-rabbit antibody Alexa 488 (1:1000) and Syto-64 a DNA dye (2 μM final concentration). Cells were then washed 3 times in PBS and scanned in ACUMEN explorer (TTP-Labtech). Integrated intensities in the green fluorescence and red fluorescence were measured to determine the levels of ERα and DNA respectively.
The degradation activity with respect to estrogen receptors in this test is given by the concentration which degrades 50% of the estrogen receptor (or IC50) in nM.
The % of ERα levels decrease were determined as follows: % inhibition=100*(1-(sample-fulvestrant: DMSO-fulvestrant)).

Each structure is given as a SMILES string.

Turning to `O=C(O)c1ccc2c(C(=O)c3ccc(OC4CN(CCCF)C4)cc3)c(-c3ccc(C(F)(F)F)cc3F)cnc2c1` [Compound 1], the “% Degradation At 0.3 μM” value is 51% and the DC50 was found to be 136 nM.

Turning to `O=C(O)c1ccc2c(C(=O)c3ccc(OCCN4CC(CF)C4)cc3)c(-c3ccc(C(F)(F)F)cc3F)cnc2c1` [Compound 2, 3-(2-fluoro-4-(trifluoromethyl)phenyl)-4-(4-(2-(3-(fluoromethyl)azetidin-1-yl)ethoxy)benzoyl)quinoline-7-carboxylic acid], the “% Degradation At 0.3 μM” value turned out to be 62% and the DC50 turned out to be 196 nM.

For the molecule `CCNCCc1ccc(CN(CC)c2cc(OC)ccc2[C@@H]2CCc3cc(C(=O)O)ccc3C2)cc1` [Compound 3, (R)-6-(2-(ethyl(4-(2-(ethylamino)ethyl)benzyl)amino)-4-methoxyphenyl)-5,6,7,8-tetrahydronaphthalene-2-carboxylic acid], the “% Degradation At 0.3 μM” value is listed as 49% and the DC50 is 252 nM.

The values are drawn from US20260055080A1, “NOVEL SUBSTITUTED QUINOLINE AND TETRAHYDRONAPHTHALENE CARBOXYLIC ACID DERIVATIVES AND THERAPEUTIC USES THEREOF” (SANOFI, priority 2022, published 2026).
